We go through one compound from patent US10085955B2, “Methods and compositions for treatment of demyelinating diseases” (Pathologica LLC, priority 2013, dated 2018).

“Also recorded” adds a separate entry of the source.

For assay [1], the system named is carrageenan-induced paw edema and hyperalgesia. The assay can be described thus: Carrageenan paw test for edema and hyperalgesia. It is filed as in vivo, Swiss Webster mice. The source says: Injection of carrageenan subcutaneously into the hind foot (paw) of a rat or mouse induces robust inflammation and pain. The inflammatory response begins 1-2 hrs post-carrageenan injection and persists for at least five hours following inoculation. In addition, the animal's inflamed hind paw is sensitive to noxious (hyperalgesia) or innocuous (allodynia) stimuli, compared to the contralateral hind paw. Compounds can be evaluated in this model for anti-hyperalgesia and anti-inflammatory activity. […] It is possible that some compounds will affect the inflamed paw and not affect the responses of the contralateral paw.
Embodiments of the carrageenan foot edema test are performed with materials, reagents and procedures essentially as described by Winter, et al., (Proc. Soc. Exp. Biol. Med., 111, 544 (1962)). Prophylactic and therapeutic embodiments have been developed, and are known in the art. The animals are evaluated for their responsiveness to noxious (paw pinch, plantar test) or innocuous (cold plate, von Frey filaments) stimuli. In the following protocol, mice were used.
Healthy young male Swiss Webster mice in which weight variation of the mice will not exceed ±20% of the mean were used for the study. Animals were divided into four groups of forty, and each group was dosed by oral gavage with either MGBG (BID, 12 hours apart at 30 mg/kg in 5 mL/kg normal saline), dexamethasone as positive control (QD, 1 mg/kg in 5 mL/kg 0.5% methylcellulose), or saline vehicle (BID, 5 mL/kg). […]
Immediately before sub-plantar administration of carrageenan and after 2, 3, 5 and 24 hours post carrageenan, mouse paw volume was measured using the plethysmometer (Ugo Basile). The assessment of edema was expressed as the mean increase in paw volume relative to control.
Prior to sub-plantar administration of carrageenan and after 0.5, 2, 3, 5, and 24 hours post-carrageenan, the latency of withdrawal response was determined by placing mice on a hot plate analgesia meter with surface temperature maintained at 51° C. […] Paw withdrawal latency is calculated as Δt=right paw withdrawal—left paw withdrawal. […]

Assay [2] relates to MOG-induced experimental autoimmune encephalomyelitis (EAE). Briefly: Second MOG EAE protocol, clinical readouts. In kind it is in vivo, C57BL/6 mice. As to conditions: second study; MGBG 30 mpk BID, fingolimod 1 mpk QD. The text has this:
An experimental murine model of multiple sclerosis employing a myelin oligodendrocyte glycoprotein (MOG) peptide to induce experimental autoimmune encephalomyelitis (EAE) was employed to determine the efficacy of MGBG in preventing and treating that disease. Because of its many similarities to MS, EAE is commonly used to study pathogenesis of autoimmunity, CNS inflammation, demyelination, cell trafficking, and tolerance induction. EAE is characterized by paralysis (in some models the paralysis is remitting-relapsing), CNS inflammation and demyelination. EAE is mediated primarily by dendritic cells, myelin-specific T cells (e.g. Th1 and Th17), and M1 macrophages. B cells may also play a role in some models of EAE. Body weight also tracks disease progression. EAE is induced in C57BL/6 mice by immunization with MOG35-55 or MOG1-125 in CFA emulsion followed by administration of pertussis toxin (PTX) in PBS. The emulsion provides antigen which initiates expansion and differentiation of MOG-specific autoimmune T cells. PTX enhances EAE development by providing additional adjuvant and facilitating entrance of autoimmune T cells into the CNS. […]
Clinically, EAE progression is scored on a scale of 0 to 5, wherein each score represents the following clinical observations: […]

For the compound `CC(/C=N/NC(=N)N)=N\NC(=N)N` [MGBG, 1,1′ [methylethanediylidene]dinitrilodiguanidine], the “efficacy at lower doses” value in assay [1] (mice, 3 mg/kg PO BID and 10 mg/kg PO BID) is recorded as “observed efficacy”. In addition, the edema and hyperalgesia entry in assay [1] (mice, MGBG PO BID (30 mg/kg; alternative 3, 10, 30 mg/kg)) was “efficacious in reducing edema and hyperalgesia”. Also, in assay [1] (murine carrageenan-induced paw edema and hyperalgesia models), the top efficacious dose amounted to 30 mg/kg PO BID. Moreover, in assay [2], the “EAE disease development / severity” value is “suppressed EAE comparably to 1 mpk fingolimod; also recorded: substantially reduced disease compared to that of the vehicle group; also recorded: efficacious at postponing disease onset and reducing EAE severity”.
